According to US5561131A, “Defaunation method” (Mallinckrodt Veterinary, Inc., priority 1991, dated 1996):

Experiments:
rumen bacteria = assay: In vitro bacterial gas inhibition; type: cell-based; conditions: at the concentration known to kill protozoa
Procedure: Compounds of Table 1 were also tested for toxicity bacteria. This involved removing protozoa from rumen liquor by centrifugation at 2,000 g for 5 minutes and collecting the bacterial rich supernatant. Nitrogen and energy substrate was added to the bacterial preparation which was then dispensed in triplicate 10 ml volumes over the same range of compound concentrations (50, 150, 250 and 500 ppm.) referred to in Example 2. Control tubes were placed after every second compound to enable the inhibition of gas resulting from the compound to be assessed. […] It can be seen that these compounds are selective in their mode of action, in that they are more toxic to protozoa than bacteria.

[1] = Effect of defaunation compounds on feed intake of sheep; type: in vivo; conditions: after dosing vs pre-dosing intake
Procedure: Sheep were allowed a minimum of three weeks to adapt to their ration of 900 g of oaten chaff and 100 g of Lucerne chaff. The pre-dosing level of intake for each animal was established from the mean of five days intake immediately prior to dosing. Any effects of administering the compound on feed intake was then determined by measuring the level of feed intake after dosing.
The criteria of classifying the effect on food intake are shown below.
Poor--greater than 50% reduction in feed intake during the first week after dosing.
Fair--greater than 50% reduction in feed intake on the day following dosing but less then 50% reduction one week after dosing.
OK--transient drop in feed intake which is less than 50% on the day after dosing.
Good--No reduction in feed intake following dosing.

protozoa [2] = assay: Wool growth trial: protozoal number; type: in vivo; conditions: sheep, defaunated period, 167 mg/kg
Procedure: Seven sheep each were defaunated using a dose rate of 167 mg/kg. Compounds were administered by first mixing with 20 ml of ethanol and then with 200 ml of centrifuged rumen liquor. This solution was then administered via a flexible stomach tube directly into the rumen. The sheep were fed with a ration of 90% oaten chaff and 10% Lucerne chaff at a rate of 1000 g per day. The sheep were maintained in a defaunated state by their isolation from faunated sheep to prevent the possibility of refaunation. The sheep were allowed to adjust for 3 weeks after administering the compound before any wool growth measurements were taken.
At the start of the wool growth measurement period, a 10 cm square area of wool was removed from both sides of the sheep. After four weeks the same area was reclipped and the wool retained for scouring at the end of the trial.
The sheep then had protozoa introduced back into their rumen and were allowed to adjust for three weeks. Similarly, during the second four week period, the wool was clipped from the same patch area. The wool harvested during the two four week trial periods was then scoured of wool wax and extraneous material and weighed.

[3] = Liveweight gain of growing lambs; type: in vivo, lambs (sheep); conditions: 332 mg/kg
Procedure: (§1) Three cross-bred lambs were defaunated with compound 37 at dose rate of 332 mg per kg liveweight. The lambs were allowed four weeks to adapt to defaunation before commencing the trial. The lambs were grazed at pasture. Ten control (faunated) cohorts of the defaunated group, which were matched for liveweight, were grazed in the same paddock, but separated from the defaunated lambs by a double-fence (4 meter separation). This was to prevent the faunated lambs contaminating the defaunated lambs. Both groups of lambs were weighed on four occasions at three weekly intervals. Protozoa were also monitored at the same time.

protozoa [4] = assay: Protozoal population number in growing lambs; type: in vivo, lambs (sheep)
Procedure: as §1

[5] = Growth and carcass measurements in lambs; type: in vivo, lambs (sheep); conditions: 332 mg/kg
Procedure: as §1, with “Then” for “Ten”, “lambs.” for “lambs. Both groups of lambs were weighed on four occasions at three weekly intervals. Protozoa were also monitored at the same time.”
At 16 weeks post-defaunation both groups of the lambs were sacrificed and measurements taken.
Also shown is the cross-sectional area of the longissimus dorsi (loin eye muscle) measured between the 12th and 13th rib.

protozoa [6] = assay: Reliability of defaunation using 2 repeated doses in sheep; type: in vivo; conditions: Group 1, 2 doses, 4 weeks
Procedure: Sheep were fed a diet of 900 g oaten chaff daily, except that food and water were withheld for 19 hours before and 24 hours after dosing. Each dose was prepared by mixing compound 37 with 20 ml of ethanol followed by 200 ml of centrifuged rumen liquor, to give a dose of 167 mg/kg body weight, administered by rumen tube. Rumen protozoa were counted weekly following the final treatment.
Sixty (60) Sheep, in three successive trials of 20 each, were treated with 2 doses of compound 37, one week apart, according to the method of Example 14. Protozoa were counted at 4 or 5 weeks after the second treatment.

[7] = The Pesticide Manual, 9th Ed. 1991; cited from earlier work
mice = assay: Mouse safety assessment; type: in vivo; conditions: oral gavage, 830, 415 and 217 mg/kg, observed for 2 days
Procedure: Compounds of Table 1 chosen for testing in sheep were first tested in mice for signs of toxicity. Because sheep are approximately 5 times more sensitive than mice to compounds dosed orally, the dose rates applied to mice were 5 times greater than the target dose rate of 500 ppm. in rumen liquor (83 mg/kg live weight) used for sheep. Each compound was screened at three different dose levels, high (830 mg/kg), medium (415 mg/kg) and low (217 mg/kg).
252 mg of compound was used for dilution into a high medium and low dose rate. 252 mg of compound was mixed with 3 ml of G1284 solution (4% w/v ethoxylated castor oil and 0.05% w/v simethicone), to form the high dose composition. The medium dose composition was formed by diluting 1.5 ml of the high dose with 1.5 ml of G1284 solution. The low dose composition was formed by diluting 1.5 ml of the medium dose with 1.5 ml of G1284 solution. Before the high dose could be diluted it was first manually ball milled in an effort to produce a fine suspension of the compound.
All mice were weighed before dosing to calculate the appropriate dose rate. The calculation for dose rate was: [formula]
Each mouse was dosed using the Gavage method. With this method the mouse is dosed orally by way of an angled hypodermic needle (18 g) with a smooth spherical end. It is gently placed down the esophagus. All care must be taken not to force the needle and injure the esophagus or dose into the lungs.
Observations were made at 10, 30, 60 and 120 minutes after dosing, then every 1 or 2 hours for the first 6 hours.
Mice were usually observed for 2 days.
Typically, few compounds fell within the poor classification. The majority of compounds tested were either in the fair or good classification.

SMILES	Bact. Gas Inhibition at the conc. required to kill protozoa (rumen bacteria)	Feed Intake [1]	Prot. Number (protozoa [2])	Rate of liveweight gain (in words) ([3]; over controls, P<0.01)	ADG Increase ([3]; relative to control)	ADG ([3]; weeks 0-12)	Protozoal numbers (protozoa [4]; week 0, 332 mg/kg)	Protozoal numbers (protozoa [4]; week 3, 332 mg/kg)	Protozoal numbers (protozoa [4]; week 6, 332 mg/kg)	Protozoal numbers (protozoa [4]; week 9, 332 mg/kg)	Protozoal numbers (protozoa [4]; week 12, 332 mg/kg)	ADG, response to defaun. ([5]; vs control, p < 0.01)	Carcass dressing out percentage, response to defaun. ([5]; vs control, p < 0.01)	Loin eye muscle area, response to defaun. ([5]; vs control, p < 0.01)	ADG (average daily gain) ([5]; defaunation)	Loin eye muscle area ([5]; defaunation, 16 weeks, between 12th and 13th rib)	Carcass dressing out percentage ([5]; defaunation, 16 weeks, cold carcass weight as percentage of liveweight)	Residual protozoal population (in words) (protozoa [6])	LD50 [7]	Mouse Safety Assessment (mice)
Clc1nc(Cl)nc(Nc2ccccc2Cl)n1 [Compound 37, 2,4-dichloro-6-(2-chloroanilino)-1,3,5-triazine]	57	Okay (transient drop, less than 50% at day 2)	0 per mL × 10^3	highly significant improvement in the rate of liveweight gain	65%	165 g/day	0 per mL × 10^3	0 per mL × 10^3	0 per mL × 10^3	0 per mL × 10^3	0 per mL × 10^3	72%	16%	26%	165 g/day	12.5 CM^2	44.5%	one sheep had a residual protozoal population	> 4000 mg/kg	
Cc1ccc(Nc2nc(Cl)nc(Cl)n2)cc1Cl [Compound 27, 2,4 dichloro-6-(3 chloro-4-methylanilino)-s-triazine]	67	Okay (transient drop, less than 50% at day 2)	0 per mL × 10^3																	Fair (>2 mice sick)
